# Laboratory results from patent US20250262191A1, “NEW CRYSTAL FORM OF NITROGEN-CONTAINING TRICYCLIC COMPOUND AND USE THEREOF” (SUNSHINE LAKE PHARMA CO., LTD., priority 2021, published 2025).
# Key:
# [1] = Hygroscopicity experiment by dynamic moisture adsorption (DVS); format: physicochemical; settings: relative humidity of 80%, 25° C.
# Experimental: The hygroscopicity of the present invention is measured using the DVS INT-Std dynamic moisture and gas adsorption analyzer of the Surface Measurement Systems Company in UK. The humidity test range was 0%-95%, the air flow was 200 mL/min, the temperature was 25° C., test point: take one test point per […] 5% humidity.
# An appropriate amount of the test sample was taken and the hygroscopicity of the test sample was tested by dynamic moisture adsorption device. The description of the hygroscopic characteristics and the definition of the hygroscopic weight gain (Appendix 9103 of Chinese Pharmacopoeia 2020 Edition, Guidelines for Drug Hygroscopicity Tests, experimental conditions: 25° C.±1° C., 80%±2% relative humidity) are described in the table below: […]
# [2] = Pharmacokinetic experiment in Beagle dogs, oral capsules; format: in vivo; settings: male Beagle dogs, 5 mg/kg
# Experimental: The crystal form H of the compound having Formula (I) was filled into capsules, which were used for oral administration.
# Three male Beagle dogs weighing 8-12 kg were orally administered with capsules containing the test sample at a dose of 5 mg/kg, and blood samples were taken at time points of 0.25 h, 0.5 h, 1.0 h, 2.0 h, 4.0 h, 6.0 h, 8.0 h and 24 h. Standard curve was plotted based on concentrations of the samples in a suitable range, the concentration of the test sample in the plasma sample was measured and quantified by AB SCIEX API4000 LC-MS/MS at MRM mode. Pharmacokinetic parameters were calculated according to drug concentration-time curve using a noncompartmental method by WinNonLin 6.3 software.
# [3] = Stability experiment (high-temperature, high-humidity and photostability tests); format: physicochemical
# Experimental: (1) High-temperature test: A batch of the test sample was taken into a flat weighing bottle, divided into ≤5 mm thick thin layer. The sample was placed at 60° C. for 30 days. The sample was then sampled at day 5, day 13 and day 30, and the change of the sample's color was observed. The purity of the sample was detected by HPLC.
# (2) High-humidity test: A batch of the test sample was taken into a flat weighing bottle, divided into ≤5 mm thick thin layer. The sample was placed at 25° C., RH 90%±5% for 30 days. The sample was then sampled at day 5, day 13 and day 30, and the change of the sample's color was observed. The purity of the sample was detected by HPLC.
# (3) Photostability test: A batch of the test sample was taken into a flat weighing bottle, divided into ≤5 mm thick thin layer. The sample was placed in an opened light box (with UV) at the illuminance […], UV light ≥0.7 w/m^2 for 30 days. The sample was then sampled at day 5, day 13 and day 30, and the change of the sample's color was observed. The purity of the sample was detected by HPLC.
# [4] = High-humidity 25° C., RH 90%±5%, day 5
# [5] = High-humidity 25° C., RH 90%±5%, day 13
# [6] = High-humidity 25° C., RH 90%±5%, day 30
# [7] = High-temperature 60° C., day 13
# [8] = High-temperature 60° C., day 30
# [9] = Lighting (light box with UV), day 5
# [10] = Lighting (light box with UV), day 13
# [11] = Lighting (light box with UV), day 30
smiles,measurement,setting,value
"O=C(O)c1ccc2c(c1)Oc1ccc(OCc3c(-c4c(Cl)cccc4Cl)noc3C3CC3)nc1C1(CC1)C2 [Crystal form H, 2-((5-cyclopropyl-3-(2,6-dichlorophenyl)isoxazol-4-yl)methoxy)-10H-spiro[benzo[6,7]oxepino[3,2-b]pyridine-11,1′-cyclopropane]-7-carboxylic acid]",hygroscopic characteristics,[1],lightly hygroscopic
same,AUC(0-t),"[2]; dog, plasma",1130 ng·h/mL
same,Cmax,"[2]; dog, plasma",514 ng/mL
same,Tmax,"[2]; dog, plasma",1.33 h
same,exposure in Beagle dogs,[2],relatively large exposure
same,Appearance,[3]; [4],White
same,Purity (HPLC),[3]; [4],99.89%
same,Appearance,[3]; [5],White
same,Purity (HPLC),[3]; [5],99.92%
same,Appearance,[3]; [6],White
same,Purity (HPLC),[3]; [6],99.85%
same,Appearance,"[3]; High-temperature 60° C., day 5",White
same,Purity (HPLC),"[3]; High-temperature 60° C., day 5",99.89%
same,Appearance,[3]; [7],White
same,Purity (HPLC),[3]; [7],99.72%
same,Appearance,[3]; [8],White
same,Purity (HPLC),[3]; [8],99.86%
same,Appearance,[3]; [9],White
same,Purity (HPLC),[3]; [9],99.90%
same,Appearance,[3]; [10],White
same,Purity (HPLC),[3]; [10],99.91%
same,Appearance,[3]; [11],White
same,Purity (HPLC),[3]; [11],99.72%
same,Appearance,[3]; day 0,White
same,Purity (HPLC),[3]; day 0,99.83%
same,crystal structure stability,[3]; high temperature conditions,remains basically unchanged
same,crystal structure stability,"[3]; high temperature, high humidity and/or lighting conditions",remains basically unchanged
same,changes in the appearance and chemical purity,"[3]; high-temperature, high-humidity and/or lighting",no obvious changes
